Laboratory results reported in US11084795B2, “CFTR regulators and methods of use thereof” (The Regents of the University of California, priority 2015, dated 2021).
Converted amounts (≈) assume the structure as drawn. “And” between values parts separate entries of the source, which are not always exact repeats. Equal values may be shown once. “Also recorded” adds a separate entry of the source. Read-outs that look alike come from different tables or passages of the source.

How the values were obtained:
[1] = In vitro metabolic stability in human liver microsomes; format: in vitro ADME
Procedure: (§1) To study gastric acid stability CFTRact-J027 (10 μM) was dissolved in simulated gastric fluid (0.2 NaCl, 0.7% HCl, pH 2) and incubated for 3 h at 37° C. To study in vitro metabolic stability CFTRact-J027 (5 μM) was incubated for specified times at 37° C. with human liver microsomes (1 mg protein/ml; Sigma-Aldrich) in potassium phosphate buffer (100 mM) containing 1 mM NADPH. After specified incubation periods the mixtures were chilled on ice, and 0.5 ml of ice-cold ethyl acetate was added. Samples were centrifuged for 15 min at 3000 rpm, the supernatants evaporated to dryness, and the residues were dissolved in 100 μL mobile phase (acetonitrile:water, 3:1) and assayed by liquid chromatography mass spectrometry (LC/MS). The solvent system consisted of a linear gradient from 5 to 95% acetonitrile over 16 min (0.2 ml/min flow). Mass spectra were acquired on a mass spectrometer (Waters 2695 and Micromass ZQ, Milford, Mass.) using electrospray (+) ionization, mass ranging from 100 to 1500 Da, cone voltage 40 V.

FRT cells = test: Alamar Blue cytotoxicity assay in FRT cells; format: cell-based, rat
[2] = Compound accumulation in systemic tissues after 14 days topical dosing; format: in vivo, mouse; details: two weeks of three times per day topical dosing
[3] = tested on: intestinal fluid absorption; test: Closed mid-jejunal loop model of intestinal fluid absorption in cystic fibrosis mice; format: in vivo, mouse; details: 30 min
Procedure: Mice (wildtype or CF) were given access to 5% dextrose water but not solid food for 24 h before experiments. Mice were anesthetized with isoflurane and body temperature was maintained during surgery at 36-38° C. using a heating pad. A small abdominal incision was made to expose the small intestine, and closed mid-jejunal loops (length 2-3 cm) were isolated by sutures. Loops were injected with 100 μL vehicle alone or 100 μg CFTRact-J027 in vehicle. The abdominal incision was closed with sutures, and mice were allowed to recover from anesthesia. Intestinal loops were removed at 90 min and loop length and weight were measured to quantify fluid secretion. Intestinal absorption was measured in CF mice (to prevent secretion) as described above, except that the loops were removed at 0 or 30 min. Absorption was calculated as 1−(loop weight at 0 min−loop weight at 30 min)/loop weight at 0 min.
In vivo intestinal secretion and absorption. Mice (wildtype or CF) were given access to 5% dextrose water but not solid food for 24 h before experiments. […] Intestinal loops were removed at 90 min and loop length and weight were measured to quantify fluid secretion. Intestinal absorption was measured in CF mice (to prevent secretion) as described above, except that the loops were removed at 0 or 30 min. Absorption was calculated as 1−(loop weight at 0 min−loop weight at 30 min)/loop weight at 0 min.

[4] = Stability in simulated gastric fluid (pH 2); format: physicochemical; details: 10 μM, pH 2, 37° C., 3 h
Procedure: as §1

loperamide-treated mice = test: Loperamide-induced mouse model of constipation; details: for ED50: Mus musculus
human wildtype CFTR [5] = biological target: T1, human wildtype CFTR (Homo sapiens, UniProt P13569); test: Fluorescence plate reader assay of iodide influx in FRT cells co-expressing CFTR and YFP halide sensor; details: synthesized compounds, full dose-response study; 125 nM forskolin
[6] = Ocular toxicity after chronic topical dosing (slit-lamp, lissamine green staining); format: in vivo; details: chronically treated mice
Procedure: (§2) To assess corneal epithelial disruption, 5 μL of lissamine green (LG) dye (1%) was applied to the ocular surface of isofluorane-anesthetized mice. Photographs of the eye were taken using a Nikon Digital camera adapted to an Olympus Zoom Stereo Microscope (Olympus, Center Valley, Pa., USA). Each corneal quadrant was scored on a 3-point scale by one blinded, trained observer, with the extent of staining in each quadrant classified as: 0, no staining; 1, sporadic (involving <25% of the total surface) staining; grade 2, diffuse punctate staining (25-75%); and grade 3, coalesced punctate staining (>75%). The total grade is reported as the sum of scores from all four quadrants, ranging from 0 to 12.
as §2, with “Lissamine green staining. To” for “To”, “(≥75%).” for “(>75%).”

Solubility = format: physicochemical; details: read-out: solubility limit
human wildtype CFTR [7] = biological target: T1, human wildtype CFTR; test: Short-circuit current (Isc) in FRT cells expressing human wild-type CFTR
C3H/HeJ mice = test: Genetic mouse model of chronic constipation (C3H/HeJ); format: in vivo
Procedure: The efficacy of orally administered CFTRact-J027 (10 mg/kg) was also tested in a genetically constipated mouse strain (15) (C3H/HeJ, age 8-11 weeks) and their wildtype counterparts (C3H/HeOuJ, age 8-11 weeks). Mice were placed in metabolic cages after CFTRact-J027 or vehicle administration at zero time and stool was collected for 4 h. Stool weight, pellet number and water content were determined as described above. Whole-gut transit time was measured to assess gut motility, in which mice treated with CFTRact-J027 (10 mg/kg, ip) or vehicle at zero time were given with 100 μL blue marker (5% Evans blue, 5% gum Arabic) orally. The time of blue dye appearance in stool was determined. All experiments in C3H/HeJ and C3H/HeOuJ mice were done in paired animals to minimize variability.

T1 sequence (P13569 whole entry): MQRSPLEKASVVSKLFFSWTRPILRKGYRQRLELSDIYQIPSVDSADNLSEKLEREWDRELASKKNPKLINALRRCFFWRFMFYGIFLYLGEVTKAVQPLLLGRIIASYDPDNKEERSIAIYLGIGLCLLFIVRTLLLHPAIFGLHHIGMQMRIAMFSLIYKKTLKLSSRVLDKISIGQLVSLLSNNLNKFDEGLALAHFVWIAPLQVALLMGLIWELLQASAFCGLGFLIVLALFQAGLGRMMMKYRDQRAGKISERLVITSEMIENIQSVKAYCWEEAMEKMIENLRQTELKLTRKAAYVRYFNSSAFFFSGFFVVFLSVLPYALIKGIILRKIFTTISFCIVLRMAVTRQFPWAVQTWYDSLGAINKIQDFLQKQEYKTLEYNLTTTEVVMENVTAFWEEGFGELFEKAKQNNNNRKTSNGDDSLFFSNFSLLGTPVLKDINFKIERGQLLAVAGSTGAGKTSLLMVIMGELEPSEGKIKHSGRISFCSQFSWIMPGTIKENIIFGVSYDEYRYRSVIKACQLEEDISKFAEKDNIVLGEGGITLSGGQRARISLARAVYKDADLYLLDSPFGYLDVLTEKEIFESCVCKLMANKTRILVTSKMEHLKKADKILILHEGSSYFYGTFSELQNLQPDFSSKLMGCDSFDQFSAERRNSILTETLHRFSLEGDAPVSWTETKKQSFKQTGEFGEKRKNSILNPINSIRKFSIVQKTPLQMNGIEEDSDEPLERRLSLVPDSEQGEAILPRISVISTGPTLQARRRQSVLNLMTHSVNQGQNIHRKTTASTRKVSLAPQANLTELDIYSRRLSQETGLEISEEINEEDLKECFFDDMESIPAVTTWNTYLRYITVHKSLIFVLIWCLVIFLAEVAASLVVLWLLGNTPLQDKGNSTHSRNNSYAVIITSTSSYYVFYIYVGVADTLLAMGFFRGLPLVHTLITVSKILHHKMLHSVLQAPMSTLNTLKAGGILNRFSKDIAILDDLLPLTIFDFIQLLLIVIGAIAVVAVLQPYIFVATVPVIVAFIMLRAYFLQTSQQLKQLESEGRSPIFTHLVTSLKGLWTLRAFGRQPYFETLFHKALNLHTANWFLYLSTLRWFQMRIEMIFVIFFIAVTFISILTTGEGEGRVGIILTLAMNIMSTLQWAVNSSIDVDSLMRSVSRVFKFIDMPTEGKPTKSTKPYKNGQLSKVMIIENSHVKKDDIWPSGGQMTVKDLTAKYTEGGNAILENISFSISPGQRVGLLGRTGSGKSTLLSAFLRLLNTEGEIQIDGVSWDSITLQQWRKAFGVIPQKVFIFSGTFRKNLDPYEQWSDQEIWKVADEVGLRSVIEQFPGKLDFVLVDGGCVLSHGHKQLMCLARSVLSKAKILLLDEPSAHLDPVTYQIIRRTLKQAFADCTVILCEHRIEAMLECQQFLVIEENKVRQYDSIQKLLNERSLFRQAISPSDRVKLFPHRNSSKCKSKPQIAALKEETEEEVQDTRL

Nc1ccc([N+](=O)[O-])cc1-c1nc2ccccc2n(Cc2ccccc2)c1=O [CFTRact-J027, 3-(2-amino-5-nitrophenyl)-1-benzylquinoxalin-2(1H)-one]
compound remaining at 60 min ([1]; human hepatic microsomes): 34%
half-life at 5 μM ([1]; human, liver microsomes, 5 μM, NADPH, read-out: elimination half-life in human hepatic microsomes): ~35 min
cytotoxicity (Alamar Blue) (FRT cells; 20 μM): did not show cytotoxicity
in vitro cytotoxicity (FRT cells; 25 μM): did not show significant in vitro cytotoxicity
non-cytotoxic concentration relative to EC50 for CFTR activation (FRT cells; 25 μM): > 100 fold
in vitro cytotoxicity (FRT cells; up to 100 μM, 1 or 24 h): no appreciable in vitro cytotoxicity
amount in mouse blood, brain, liver and kidney (limit of detection) [2]: < 700 fmol
intestinal fluid absorption [3]: did not affect intestinal fluid absorption
degradation in simulated gastric fluid [4]: no compound degradation
stool weight, pellet number and water content (loperamide-treated mice; 10 mg/kg ip, loperamide-treated mice, 3 h stool): normalized each of the stool parameters
stool output and water content, oral (loperamide-treated mice; 10 mg/kg oral 1 h prior to loperamide): normalized stool output and water content; also recorded: effective in normalizing stool output and water content
stool output and water content after chronic administration (loperamide-treated mice; 10 mg/kg oral for 7 days, loperamide 1 h after final dose): remained effective in normalizing stool output and water content
stool output in control mice, oral (loperamide-treated mice; 10 mg/kg oral, control mice): no effect in control mice
ED50 (loperamide-treated mice; ip, read-out: ED50, ip administration, loperamide model, ip): 2 mg/kg
ED50 (loperamide-treated mice; po, read-out: ED50, oral administration, loperamide model, oral 1 h before loperamide): ~0.5 mg/kg
effect on stool parameters in cystic fibrosis mice (loperamide-treated mice; cystic fibrosis mice lacking functional CFTR): without effect
stool output and water content in control mice (loperamide-treated mice; ip, non-loperamide-treated mice): did not affect stool output or water content
duration of effect (loperamide-treated mice; mice): 3 to 4 h
EC50 (human wildtype CFTR [5]): 200 nM
LG staining of cornea and conjunctiva [6]: no corneal or conjunctival epithelial disruption
ocular toxicity (slit-lamp evaluation) ([6]; topical three times daily, two weeks): no signs of ocular toxicity
solubility (Solubility): ~20 µM (≈ 7.45 µg/mL)
CFTR activation at 3 μM (human wildtype CFTR [7]; 3 μM): nearly full activation
EC50 (human wildtype CFTR [7]; EC50 for CFTR activation, FRT cells, wild-type CFTR, short-circuit current): ~200 nM and 200 nM
extent of CFTR activation (Isc) (human wildtype CFTR [7]; forskolin produced little or no further increase in current): fully activated CFTR
whole-gut transit time in C3H/HeJ mice (C3H/HeJ mice; 10 mg/kg ip): normalized the increased whole-gut transit time
4-h stool weight, pellet number and water content (C3H/HeJ mice; 10 mg/kg oral, C3H/HeJ mice): increased 4-h stool weight, pellet number and water content in C3H/HeJ mice to the level of wildtype controls
stool parameters and whole-gut transit time in wildtype control mice (C3H/HeJ mice; C3H/HeOuJ mice): did not affect stool parameters or whole-gut transit time
